# From PubChem BioAssay AID330 (DTP/NCI, 2004)
# Where “and” joins values, the source holds several entries; their conditions need not be identical. Equal values may be shown once. Inconclusive results and toxic doses are left out.
# Test system: P388 leukemia ip, CD2F1 mice, survival T/C
# Assay: NCI In Vivo Anticancer Drug Screen. Data for tumor model P388 Leukemia (intraperitoneal) in CD2F1 (CDF1) mice
# Settings: endpoint: median survival time, higher = longer survival
# How it was run: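 Mice carrying the transplanted tumor received test compound or vehicle. Survival was recorded in each group, and the value is the treated-group measurement divided by that of the vehicle-treated control group.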
# [1] = dose: 60.0 mg/kg/injection, schedule: Q01DX005 (ip), vehicle: saline with Tween-80
# [2] = dose: 15.0 mg/kg/injection, schedule: Q01DX005 (ip), vehicle: saline with Tween-80
# [3] = dose: 50.0 mg/kg/injection, schedule: Q01DX009 (ip), vehicle: saline with Tween-80
# [4] = dose: 100.0 mg/kg/injection, schedule: Q01DX009 (ip), vehicle: saline with Tween-80
# [5] = dose: 200.0 mg/kg/injection, schedule: Q01DX009 (ip), vehicle: saline with Tween-80
# [6] = dose: 25.0 mg/kg/injection, schedule: Q01DX005 (ip), vehicle: Klucel (hydroxypropylcellulose) (HPC)
smiles,measurement,setting,value
NC(=O)c1cc2c(oc1=O)-c1ccccc1N(C=O)C2,T/C,[1],100 % of control
same,T/C,"dose: 120.0 mg/kg/injection, schedule: Q01DX005 (ip), vehicle: saline with Tween-80",95 % of control
same,T/C,"dose: 240.0 mg/kg/injection, schedule: Q01DX005 (ip), vehicle: saline with Tween-80",95 % of control
Cc1cccc(Cl)c1NCCN1CCCC1,T/C,[2],103 % of control
same,T/C,"dose: 30.0 mg/kg/injection, schedule: Q01DX005 (ip), vehicle: saline with Tween-80",101 % of control
same,T/C,[1],106 % of control and 108 % of control
CC(=N/NC(=S)NCC(C)C)/C(C)=N\Nc1ccc(Cl)cc1,T/C,"dose: 50.0 mg/kg/injection, schedule: Q01DX009 (ip), vehicle: saline",97 % of control
same,T/C,"dose: 100.0 mg/kg/injection, schedule: Q01DX009 (ip), vehicle: saline",106 % of control
same,T/C,"dose: 200.0 mg/kg/injection, schedule: Q01DX009 (ip), vehicle: saline",99 % of control
C#CCOC(=O)C1CCCCC1,T/C,[3],110 % of control
same,T/C,[4],110 % of control
same,T/C,[5],112 % of control
CC12OC1C(=O)C=CC2=O (stereo not given),T/C,"dose: 5.0 mg/kg/injection, schedule: Q04DX002 (ip), vehicle: saline with Tween-80",111 % of control
O=C1C=C(O)C(=O)C(CC2=C(O)C(=O)C=C(O)C2=O)=C1O,T/C,"dose: 12.5 mg/kg/injection, schedule: Q01DX005 (ip), vehicle: Klucel (hydroxypropylcellulose) (HPC)",101 % of control and 90 % of control
same,T/C,[6],86 % of control and 90 % of control and 95 % of control
C=CC(=O)OCCCN(CCCC)CCCC,T/C,[6],100 % of control
same,T/C,"dose: 50.0 mg/kg/injection, schedule: Q01DX005 (ip), vehicle: Klucel (hydroxypropylcellulose) (HPC)",95 % of control
same,T/C,"dose: 100.0 mg/kg/injection, schedule: Q01DX005 (ip), vehicle: Klucel (hydroxypropylcellulose) (HPC)",105 % of control
same,T/C,"dose: 200.0 mg/kg/injection, schedule: Q01DX005 (ip), vehicle: Klucel (hydroxypropylcellulose) (HPC)",105 % of control
COC(=O)c1ccc(SCCC(C)=O)cc1,T/C,[3],99 % of control
same,T/C,[4],106 % of control
same,T/C,[5],101 % of control
C(=N/OC(c1ccccc1)(c1ccccc1)c1ccccc1)/c1ccccc1,T/C,"dose: 25.0 mg/kg/injection, schedule: Q04DX003 (ip), vehicle: saline",104 % of control
same,T/C,"dose: 75.0 mg/kg/injection, schedule: Q04DX003 (ip), vehicle: saline",100 % of control
same,T/C,"dose: 150.0 mg/kg/injection, schedule: Q04DX003 (ip), vehicle: saline",95 % of control
COc1ccc(NC(=O)C#N)cc1,T/C,"dose: 7.5 mg/kg/injection, schedule: Q01DX005 (ip), vehicle: saline with Tween-80",105 % of control
same,T/C,[2],113 % of control
CCCSCCCCSCCC,T/C,[4],100 % of control
same,T/C,[5],108 % of control
CC/C(=N/OC)C(=O)OC,T/C,"dose: 50.0 mg/kg/injection, schedule: Q01DX005 (ip), vehicle: saline with Tween-80",93 % of control
same,T/C,"dose: 100.0 mg/kg/injection, schedule: Q01DX005 (ip), vehicle: saline with Tween-80",99 % of control
same,T/C,"dose: 200.0 mg/kg/injection, schedule: Q01DX005 (ip), vehicle: saline with Tween-80",100 % of control
CCC[As](C)SCC1OC(OC(C)=O)C(OC(C)=O)C(OC(C)=O)C1OC(C)=O (stereo not given),T/C,[3],110 % of control
same,T/C,[4],102 % of control
same,T/C,[5],118 % of control
CC(=O)Nc1cc(N(CCOS(C)(=O)=O)CCOS(C)(=O)=O)ccc1N=O,T/C,"dose: 0.08 mg/kg/injection, schedule: Q01DX009 (ip), vehicle: saline",154 % of control
same,T/C,"dose: 1.25 mg/kg/injection, schedule: Q04DX003 (ip), vehicle: saline sonified",168 % of control
same,T/C,"dose: 2.5 mg/kg/injection, schedule: Q04DX003 (ip), vehicle: saline sonified",177 % of control
same,T/C,"dose: 75.0 micrograms/kg/injection, schedule: Q01DX009 (ip), vehicle: saline",159 % of control
same,T/C,"dose: 150.0 micrograms/kg/injection, schedule: Q01DX009 (ip), vehicle: saline",159 % of control
CC(=O)NC(C)CC1=CC(=O)C(C)=CC1=O (stereo not given),T/C,"dose: 25.0 mg/kg/injection, schedule: Q01DX001 (ip), vehicle: Klucel (hydroxypropylcellulose) (HPC)",95 % of control
CCOc1cc2cc(/C=N/OCC3CO3)c(Cl)nc2cc1OCC (stereo not given),T/C,"dose: 50.0 mg/kg/injection, schedule: Q01DX005 (ip), vehicle: suspension in saline",92 % of control
same,T/C,"dose: 100.0 mg/kg/injection, schedule: Q01DX005 (ip), vehicle: suspension in saline",92 % of control
same,T/C,"dose: 200.0 mg/kg/injection, schedule: Q01DX005 (ip), vehicle: suspension in saline",90 % of control
CN1C2CCC1CC(=NOS(=O)(=O)CC13CCC(CC1=O)C3)C2 (stereo not given),T/C,"dose: 50.0 mg/kg/injection, schedule: Q01DX005 (ip), vehicle: saline",100 % of control
same,T/C,"dose: 100.0 mg/kg/injection, schedule: Q01DX005 (ip), vehicle: saline",103 % of control
same,T/C,"dose: 200.0 mg/kg/injection, schedule: Q01DX005 (ip), vehicle: saline",115 % of control
CC1(C)COCN1COCCCOCN1COCC1(C)C,T/C,"dose: 12.5 mg/kg/injection, schedule: Q01DX009 (ip), vehicle: saline with Tween-80",102 % of control
same,T/C,"dose: 25.0 mg/kg/injection, schedule: Q01DX009 (ip), vehicle: saline with Tween-80",120 % of control
same,T/C,"dose: 150.0 mg/kg/injection, schedule: Q01DX009 (ip), vehicle: saline with Tween-80",118 % of control
